# Measured values as given in patent publication US5880099A, “Inositol polyphosphates and methods of using same” (The Regents of the University of California, priority 1997, dated 1999).
# How the values were obtained:
# [1] = tested on: T84 cells (Ins(3,4,5,6)P4 inhibition of histamine-stimulated chloride ion secretion); experiment: Reversal of Bt2 -Ins(3,4,5,6)P4 /AM inhibition of histamine-stimulated chloride ion secretion in T84 cells; type: cell-based, human; conditions: T84 cells, histamine-stimulated
# [2] = tested on: T84 cells (Ins(3,4,5,6)P4 inhibition of histamine-stimulated chloride ion secretion); experiment: as above; type: cell-based, human; conditions: 400 μM antagonist + 200 μM Bt2 Ins (3,4,5,6)P4 /AM; mean ± SEM; 30 min
# [3] = tested on: T84 cells (histamine-stimulated chloride ion secretion); experiment: Histamine-stimulated chloride ion secretion (short circuit current) in T84 monolayers; type: cell-based, human; conditions: for effect on histamine-stimulated / calcium-mediated chloride ion secretion (in words): T84 cells
# [4] = tested on: colonic epithelial T84 cells (calcium-mediated chloride ion secretion); experiment: Inhibition of calcium-mediated chloride ion secretion (Table I summary); type: cell-based, human
# In short: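 T84 monolayers (passages 18-48, 7-10 days on permeable supports) preincubated with 100, 200 or 400 μM Bt2-Ins(3,4,5,6)P4/AM for 30 min before Ussing-chamber mounting. After another 30 min, 0.1 mM histamine added; chloride secretion recorded as voltage-clamped short circuit current (Isc).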
# [5] = tested on: T84 cells (histamine-stimulated chloride ion secretion); experiment: Histamine-stimulated chloride ion secretion (short circuit current) in T84 monolayers; type: cell-based; conditions: Homo sapiens, T84, 0.5 h; 800 μM compound alone; mean ± SEM; read-out: Peak ΔIsc (% Control) after histamine (100 μM)
# Ins(3,4,5,6)P4 [6] = experiment: Intracellular Ins(3,4,5,6)P4 level in (3H)-inositol labeled T84 cells; type: cell-based, human; conditions: 400 μM D,L-Bt3 -Ins(1,3,4)P3 /AM
# [7] = tested on: T84 cells (carbachol-stimulated chloride ion secretion); experiment: Carbachol-stimulated (calcium-mediated) chloride ion secretion in T84 cells; type: cell-based, human
# Protocol: The cell permeable derivative D,L-Bt3 -Ins(1,3,4)P3 /AM was synthesized. Colonic epithelial T84 cells were preincubated for 30 min with 400 μM D,L-Bt3 -Ins(1,3,4)P3 /AM prior to mounting in Ussing chambers and measuring ΔIsc. At 10 min, carbachol (10^-4 M) was added to transiently stimulate calcium-mediated chloride ion secretion. Data were the average of 8 experiments with p<0.04, unpaired, two-sided student's t-test. […]
# intracellular calcium = experiment: Intracellular calcium concentration in treated cells; type: cell-based, human
# Protocol: Elevation in intracellular calcium concentration leads to increased chloride ion secretion. To ensure that none of the effects of the inositol polyphosphate derivatives on chloride ion secretion were due to changes in calcium levels, the concentration of intracellular calcium was measured in cells treated with the inositol polyphosphate derivatives. […] None of the compounds tested altered intracellular calcium levels by themselves or modified levels of intracellular calcium stimulated with carbachol or thapsigargin. Therefore, the effects of inositol polyphosphate derivatives on chloride ion secretion are not due to any effect on intracellular calcium concentrations.
# [8] = tested on: T84 cells (EGF inhibition of cyclic AMP-mediated chloride ion secretion); experiment: EGF inhibition of cyclic AMP-mediated chloride ion secretion, reversal; type: cell-based, human
# [9] = tested on: T84 cells (PtdInsP3-mediated decrease in chloride ion secretion); experiment: Reversal of PtdInsP3-mediated decrease in chloride ion secretion in T84 cells; type: cell-based, human; conditions: FIG. 7d, 7e
# Protocol: T84 cells also were preincubated with cell permeable Ins(1,4,5,6)P4 derivatives to determine whether Ins(1,4,5,6)P4 can reverse PtdInsP3 -mediated decreases in chloride ion secretion.
# [10] = tested on: T84 cells (EGF induced inhibition of chloride ion secretion); experiment: EGF induced inhibition of carbachol-stimulated chloride ion secretion in T84 cells and its reversal; type: cell-based, human; conditions: EGF 16.3 nM, carbachol 100 μM
# Protocol: After an additional 15 min incubation, 100 μM carbachol was added to acutely elevate intracellular calcium concentrations. Controls also were stimulated with carbachol but were not pretreated with EGF. Data are the means of duplicate measurements from a representative experiment (total of three experiments).
# [11] = tested on: T84 cells (thapsigargin-stimulated chloride ion secretion); experiment: Thapsigargin-stimulated chloride ion secretion in T84 cells; type: cell-based, human; conditions: carbachol 10^-4 M, thapsigargin 1 μM; FIG. 5A
# Excerpt: Carbachol, a muscarinic cholinergic compound, also increases intracellular calcium ion concentration and stimulates chloride ion secretion with short term treatment. However, following long-term treatment of colonic epithelial T84 cells with carbachol, increased concentrations of intracellular calcium ions no longer stimulate chloride ion secretion (Kachintorn et al., Am. J. Physiol. Cell 264:C671 (1993)), which is incorporated herein by reference. […] Thus, Ins(3,4,5,6)P4 is an endogenous negative regulator of calcium-mediated chloride ion secretion because it uncouples chloride ion secretion from calcium ion concentration.
# One set of cells was preincubated for 30 min with an inositol polyphosphate derivative. The other two sets of cells were preincubated with vehicle, alone. Measurement of Isc was initiated at time 0. At 5 min, carbachol (10^-4 M) was added to one set of cells preincubated with vehicle alone (designated "Carbachol" in FIG. 5) and to the set of cells preincubated with inositol polyphosphate derivatives (designated "Carbachol+D,L-1,2-Cyclohexylidene-Ins(3,4,5,6)P4 /AM" in FIG. 5A). At 30 min, 1 μM thapsigargin was added. Data were collected for n=4 to 6 experiments.
# Ins(3,4,5,6)P4 [12] = conditions: cited from earlier work
# inositol 1 kinase = conditions: in vitro; Tan et al.; cited from earlier work
# [13] = tested on: T84 cells (histamine-stimulated chloride ion secretion); conditions: equivalent to 200 μM extracellular concentration; Vajanaphanich et al.; cited from earlier work
compound,measurement,setting,value
"CCCC(=O)O[C@@H]1[C@H](OC)[C@H](OP(=O)(OCOC(C)=O)OCOC(C)=O)[C@@H](OP(=O)(OCOC(C)=O)OCOC(C)=O)[C@H](OP(=O)(OCOC(C)=O)OCOC(C)=O)[C@H]1OP(=O)(OCOC(C)=O)OCOC(C)=O (relative stereo) [D,L-1-Bt-2-Me-Ins(3,4,5,6)P4 /AM, D,L-1-O-butyryl-2-O-methyl-myo-inositol 3,4,5,6-TKphosphate oct (acetoxymethyl) ester]","reversal of the inhibitory effect of Bt2 -Ins(3,4,5,6)P4 /AM / Ins(3,4,5,6)P4-mediated inhibition (in words)",[1],"did not reverse the inhibition of Bt2 -Ins(1,4,5,6)P4 /AM"
same,Peak ΔIsc (% Control) after histamine (100 μM),[2],96.7 ± 14.8 % Control
same,effect on histamine-stimulated / calcium-mediated chloride ion secretion (in words),[3],did not inhibit chloride ion secretion
same,Mechanism and Inositol Polyphosphate Pathway Affected,"[4]; pathway: Ins (3,4,5,6)P4",Agonist of
same,activity at 800 µM,[5],114 ± 23.7%
"CCCC(=O)O[C@@H]1[C@@H](OC(=O)CCC)[C@H](OP(=O)(OCOC(C)=O)OCOC(C)=O)[C@@H](OP(=O)(OCOC(C)=O)OCOC(C)=O)[C@@H](OC(=O)CCC)[C@H]1OP(=O)(OCOC(C)=O)OCOC(C)=O (relative stereo) [D,L-Bt3 -Ins(1,3,4)P3 /AM, D,L-2,5,6-tri-O-butyryl-myo-inositol 1,3,4-trisphosphate hex (acetoxymethyl) ester]","increase in Ins(3,4,5,6)P4","Ins(3,4,5,6)P4 [6]",three-fold increase
same,peak ΔIsc,"[7]; 400 μM, 30 min preincubation, carbachol 10^-4 M, 8 experiments, control 15.2±2.8, p<0.04",7.9±1.6
same,inhibition at 400 µM,"[7]; Homo sapiens, 0.5 h, 400 μM D,L-Bt3 -Ins(1,3,4)P3 /AM, read-out: decrease of calcium-mediated chloride ion secretion",~50%
same,effect on carbachol-stimulated / calcium-mediated chloride ion secretion (in words),"[7]; T84 cells, preincubation",inhibits calcium-mediated chloride ion secretion
same,Mechanism and Inositol Polyphosphate Pathway Affected,"[4]; pathway: Ins (3,4,5,6)P4",Agonist of
"CCCC(=O)O[C@@H]1[C@H](OC(=O)CCC)[C@@H](OP(=O)(OCOC(C)=O)OCOC(C)=O)[C@H](OP(=O)(OCOC(C)=O)OCOC(C)=O)[C@@H](OP(=O)(OCOC(C)=O)OCOC(C)=O)[C@@H]1OP(=O)(OCOC(C)=O)OCOC(C)=O [Bt2 -Ins(1,4,5,6)P4 /AM, 2,3-di-O butyryl-myo-inositol 1,4,5,6-TKphosphate oct (acetoxymethyl) ester]",effect on intracellular calcium (in words),intracellular calcium; alone,did not elevate intracellular calcium
same,effect on calcium response to thapsigargin or carbachol (in words),intracellular calcium; thapsigargin or carbachol stimulated,did not elevate intracellular calcium or the calcium response to thapsigargin
same,reversal of EGF inhibition of cyclic AMP-mediated chloride ion secretion (in words),[8],did not reverse EGF inhibition of cyclic AMP-mediated chloride ion secretion
same,activity at 400 µM,"[3]; Homo sapiens, T84, 0.5 h, 400 μM compound alone, mean ± SEM, read-out: Peak ΔIsc (% Control) after histamine (100 μM)",138 ± 20.7%
same,effect on histamine-stimulated / calcium-mediated chloride ion secretion (in words),[3],did not inhibit chloride ion secretion and in fact led to a slight increase in chloride ion secretion
same,Mechanism and Inositol Polyphosphate Pathway Affected,[4]; pathway: PtdInsP3,Antagonist of
same,effect on PtdInsP3-mediated decrease in chloride ion secretion (in words),[9],enhances chloride ion secretion
same,effect on carbachol-stimulated chloride ion secretion / EGF induced inhibition (in words),[10],enhances chloride ion secretion
same,effect on carbachol-stimulated chloride ion secretion / EGF induced inhibition (in words),"[10]; listed as Bt2 Ins(1,4,5,6)P4 /AM",significantly reversed EGF induced inhibition of chloride ion secretion
C[N+](C)(C)CCOC(N)=O [Carbachol],effect of prolonged carbachol on thapsigargin-stimulated ΔIsc (in words),[11],ΔIsc was attenuated
same,"increase in Ins(3,4,5,6)P4 levels","Ins(3,4,5,6)P4 [12]; background",≤ 20 -fold
same,"rise of intracellular Ins(3,4,5,6)P4 levels (in words)","Ins(3,4,5,6)P4 [12]; long-term treatment, Vajanaphanich et al.","slow and prolonged rise of intracellular Ins(3,4,5,6)P4 levels"
"O=P(O)(O)O[C@H]1[C@H](O)[C@@H](O)[C@H](OP(=O)(O)O)[C@@H](OP(=O)(O)O)[C@H]1O [Ins(1,3,4)P3]",effect on inositol 1 kinase (in words),inositol 1 kinase,inhibited inositol 1 kinase
"O=P(O)(O)O[C@H]1[C@H](OP(=O)(O)O)[C@@H](OP(=O)(O)O)[C@@H](O)[C@@H](O)[C@@H]1OP(=O)(O)O [Ins(3,4,5,6)P4, myo-inositol 3,4,5,6-tetrakisphosphate]",intracellular level corresponding to onset of maximum inhibition,[13],~4 µM
